Reference: ChEMBL document CHEMBL1201862, “PubChem BioAssay data set” (2004)
Calls of active or inactive are those of the source. Rule as the data show it, for most assays here: actives have a measured EC50 and inactives only a lower limit.

Columns and labels:
[1] = molecular target: T1, Heat shock factor protein 1 (Mus musculus, UniProt P38532); assay: HSF1 potentiators in luciferase reporter cells, confirmation, cell-based, NIH3T3, luminescence, dose retest (AID 435004); type: functional;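 also: stress induced by proteasome inhibitor MG132 added 30 min after compound; luciferase reporter driven by HSF1 response element in NIH3T3 cells; actives raise luminescence as potentiators of the MG132 stress response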
T1 sequence (P38532 whole entry): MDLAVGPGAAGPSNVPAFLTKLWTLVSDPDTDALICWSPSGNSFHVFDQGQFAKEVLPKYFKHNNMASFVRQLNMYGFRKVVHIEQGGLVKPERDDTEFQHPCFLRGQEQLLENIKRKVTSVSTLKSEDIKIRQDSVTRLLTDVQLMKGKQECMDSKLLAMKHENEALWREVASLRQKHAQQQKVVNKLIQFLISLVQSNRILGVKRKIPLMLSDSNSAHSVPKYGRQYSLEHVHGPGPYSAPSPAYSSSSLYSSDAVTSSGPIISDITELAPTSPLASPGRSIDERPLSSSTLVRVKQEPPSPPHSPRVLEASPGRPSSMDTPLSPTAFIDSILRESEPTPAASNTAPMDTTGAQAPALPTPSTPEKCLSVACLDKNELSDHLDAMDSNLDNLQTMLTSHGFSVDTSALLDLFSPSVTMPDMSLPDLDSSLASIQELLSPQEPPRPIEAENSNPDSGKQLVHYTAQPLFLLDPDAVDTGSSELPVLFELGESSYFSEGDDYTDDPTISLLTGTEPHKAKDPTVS

H9c2 = assay: cells; type: functional, cell-based; conditions: Rattus norvegicus, H9c2, Myocardium;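 also: confirmatory concentration-response retest of ultra-high-throughput screening hits for modulation of myocardial damage; cell death induced by hydrogen peroxide oxidative stress; compound pretreatment for 60 min then peroxide exposure for 2 h; potency is for protecting the cells against peroxide damage rather than for killing them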
[2] = molecular target: T2, Corticotropin-releasing factor receptor 2/Corticotropin-releasing factor-binding protein (Homo sapiens, UniProt P24387+Q13324); assay: activators of CRF receptor 2 with binding protein – uHTS hits, confirmation (AID 602473); type: functional; conditions: read-out: EC50_Mean
T2 sequence (Q13324 whole entry): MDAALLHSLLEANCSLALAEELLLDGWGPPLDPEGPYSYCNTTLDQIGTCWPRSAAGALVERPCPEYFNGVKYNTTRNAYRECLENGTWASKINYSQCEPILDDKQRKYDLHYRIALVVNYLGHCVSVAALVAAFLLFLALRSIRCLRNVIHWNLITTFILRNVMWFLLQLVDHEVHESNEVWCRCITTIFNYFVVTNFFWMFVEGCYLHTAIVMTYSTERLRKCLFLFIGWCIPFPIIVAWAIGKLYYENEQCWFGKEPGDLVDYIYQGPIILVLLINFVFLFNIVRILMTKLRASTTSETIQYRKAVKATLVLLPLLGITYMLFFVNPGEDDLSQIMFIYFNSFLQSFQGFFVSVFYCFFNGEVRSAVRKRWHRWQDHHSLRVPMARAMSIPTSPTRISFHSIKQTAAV
T2 sequence (P24387 whole entry): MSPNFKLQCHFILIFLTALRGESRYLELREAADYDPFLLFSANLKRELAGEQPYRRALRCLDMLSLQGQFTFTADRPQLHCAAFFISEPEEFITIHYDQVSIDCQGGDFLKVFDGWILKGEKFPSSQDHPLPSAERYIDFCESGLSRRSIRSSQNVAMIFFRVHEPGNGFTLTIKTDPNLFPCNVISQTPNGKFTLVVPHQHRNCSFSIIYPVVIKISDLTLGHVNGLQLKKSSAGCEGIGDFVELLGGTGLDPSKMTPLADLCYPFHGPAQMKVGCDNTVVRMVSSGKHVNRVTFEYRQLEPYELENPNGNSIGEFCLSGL

[3] = C. albicans growth with fluconazole, confirmation, fluorescence, retest (AID 2467); type: functional, cell-based
[4] = NIH-3T3 fibroblast cytotoxicity, dose response, cytotoxicity control, cell-based, fluorescence, Alamar Blue, secondary assay (AID 2327); type: functional;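 also: NIH-3T3 mouse fibroblasts cultured with fluconazole at 8 µg/mL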
[5] = Shn3 3'UTR reporter inhibitors, dose response, cell-based, Clone20 osteoblasts, firefly luciferase, cherry-picked (AID 624132); type: functional;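 also: firefly luciferase luminescence from reporter carrying the Shn3 3'UTR in osteoblasts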
BJ [6] = assay: cytotoxicity toward BJ-TERT fibroblasts, dose response, cell-based, RAS-independent, luminescence (AID 1933); type: functional; conditions: Homo sapiens
BJ [7] = assay: cytotoxicity toward BJ-TERT-LT-ST fibroblasts, dose response, cell-based, RAS-independent, luminescence (AID 1935); type: functional; conditions: Homo sapiens;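 also: BJ fibroblasts immortalized with TERT plus LT and ST oncogenes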
BJ [8] = assay: cells; type: functional, cell-based; conditions: Homo sapiens
[9] = cytotoxicity toward DRD oncogenic fibroblasts, dose response, cell-based, non-viral oncogenic, luminescence (AID 1934); type: functional; conditions: Homo sapiens
Genome polyprotein = Genome polyprotein (dengue virus type 2, UniProt P29990); assay: Dengue-2 NS5 methyltransferase inhibitors, primary screen, biochemical, confirmation dose response (AID 588689); type: functional
Genome polyprotein, sequence (P29990 2492-3391 limits assumed): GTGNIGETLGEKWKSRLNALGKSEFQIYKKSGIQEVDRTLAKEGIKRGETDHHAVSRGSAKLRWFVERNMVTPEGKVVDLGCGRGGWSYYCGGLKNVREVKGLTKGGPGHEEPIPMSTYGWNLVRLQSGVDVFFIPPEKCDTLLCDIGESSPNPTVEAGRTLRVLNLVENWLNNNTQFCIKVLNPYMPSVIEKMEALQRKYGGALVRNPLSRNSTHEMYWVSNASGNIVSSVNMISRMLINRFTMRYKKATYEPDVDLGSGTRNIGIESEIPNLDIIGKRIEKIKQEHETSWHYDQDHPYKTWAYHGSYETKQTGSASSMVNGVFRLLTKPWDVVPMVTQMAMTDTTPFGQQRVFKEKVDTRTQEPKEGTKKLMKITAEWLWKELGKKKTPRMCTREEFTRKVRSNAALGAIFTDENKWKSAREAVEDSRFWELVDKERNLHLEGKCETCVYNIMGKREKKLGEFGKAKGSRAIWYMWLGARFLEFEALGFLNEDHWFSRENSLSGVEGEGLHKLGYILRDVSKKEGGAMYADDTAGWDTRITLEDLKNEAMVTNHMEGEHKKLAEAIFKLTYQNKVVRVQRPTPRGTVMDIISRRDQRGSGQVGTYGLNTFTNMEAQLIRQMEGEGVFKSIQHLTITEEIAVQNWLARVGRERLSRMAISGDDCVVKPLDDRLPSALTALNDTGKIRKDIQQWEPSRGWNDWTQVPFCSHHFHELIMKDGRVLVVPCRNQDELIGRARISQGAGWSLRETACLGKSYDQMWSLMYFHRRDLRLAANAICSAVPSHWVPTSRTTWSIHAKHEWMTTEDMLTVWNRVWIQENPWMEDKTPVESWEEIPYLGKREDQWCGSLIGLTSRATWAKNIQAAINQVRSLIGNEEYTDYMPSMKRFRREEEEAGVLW

[10] = molecular target: T3, Replicative DNA helicase DnaB (Mycobacterium tuberculosis, UniProt P9WMR3); assay: DnaB intein splicing inhibitors, dose response, biochemical, cell-free fluorescence (AID 449749); type: functional
T3 sequence (P9WMR3 whole entry): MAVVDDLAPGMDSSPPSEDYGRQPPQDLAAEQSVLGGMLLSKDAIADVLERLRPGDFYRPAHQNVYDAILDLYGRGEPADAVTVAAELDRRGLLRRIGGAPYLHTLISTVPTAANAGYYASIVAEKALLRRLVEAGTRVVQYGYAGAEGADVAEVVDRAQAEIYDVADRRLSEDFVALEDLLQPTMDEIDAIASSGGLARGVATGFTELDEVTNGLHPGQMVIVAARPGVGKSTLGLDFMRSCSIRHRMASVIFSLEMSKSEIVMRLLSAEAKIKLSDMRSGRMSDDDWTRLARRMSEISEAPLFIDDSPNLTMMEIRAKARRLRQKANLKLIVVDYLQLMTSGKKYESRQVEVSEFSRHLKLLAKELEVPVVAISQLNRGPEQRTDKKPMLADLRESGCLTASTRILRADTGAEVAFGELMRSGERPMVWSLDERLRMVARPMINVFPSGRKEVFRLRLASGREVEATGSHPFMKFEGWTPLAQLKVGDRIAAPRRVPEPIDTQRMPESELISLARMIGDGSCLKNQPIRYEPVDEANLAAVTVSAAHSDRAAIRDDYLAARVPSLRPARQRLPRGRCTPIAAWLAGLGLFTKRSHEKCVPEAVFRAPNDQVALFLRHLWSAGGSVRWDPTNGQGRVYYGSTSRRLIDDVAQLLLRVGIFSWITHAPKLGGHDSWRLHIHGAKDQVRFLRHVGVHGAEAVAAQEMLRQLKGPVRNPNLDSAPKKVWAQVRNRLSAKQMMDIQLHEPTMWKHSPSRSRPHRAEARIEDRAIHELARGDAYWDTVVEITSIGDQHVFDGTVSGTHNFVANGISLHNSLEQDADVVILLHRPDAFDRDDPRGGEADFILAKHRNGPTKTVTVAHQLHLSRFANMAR

Protein RecA = molecular target: T4, Protein RecA (Mycobacterium tuberculosis, UniProt P9WHJ3); assay: Fluorescence Cell-Free Homogeneous Dose Retest to Identify Inhibitors of RecA-Intein Splicing Activity. [Related pubchem assays (depositor defined):AID2097, AID2223, AID489010, AID492950]; type: functional
T4 sequence (P9WHJ3 whole entry): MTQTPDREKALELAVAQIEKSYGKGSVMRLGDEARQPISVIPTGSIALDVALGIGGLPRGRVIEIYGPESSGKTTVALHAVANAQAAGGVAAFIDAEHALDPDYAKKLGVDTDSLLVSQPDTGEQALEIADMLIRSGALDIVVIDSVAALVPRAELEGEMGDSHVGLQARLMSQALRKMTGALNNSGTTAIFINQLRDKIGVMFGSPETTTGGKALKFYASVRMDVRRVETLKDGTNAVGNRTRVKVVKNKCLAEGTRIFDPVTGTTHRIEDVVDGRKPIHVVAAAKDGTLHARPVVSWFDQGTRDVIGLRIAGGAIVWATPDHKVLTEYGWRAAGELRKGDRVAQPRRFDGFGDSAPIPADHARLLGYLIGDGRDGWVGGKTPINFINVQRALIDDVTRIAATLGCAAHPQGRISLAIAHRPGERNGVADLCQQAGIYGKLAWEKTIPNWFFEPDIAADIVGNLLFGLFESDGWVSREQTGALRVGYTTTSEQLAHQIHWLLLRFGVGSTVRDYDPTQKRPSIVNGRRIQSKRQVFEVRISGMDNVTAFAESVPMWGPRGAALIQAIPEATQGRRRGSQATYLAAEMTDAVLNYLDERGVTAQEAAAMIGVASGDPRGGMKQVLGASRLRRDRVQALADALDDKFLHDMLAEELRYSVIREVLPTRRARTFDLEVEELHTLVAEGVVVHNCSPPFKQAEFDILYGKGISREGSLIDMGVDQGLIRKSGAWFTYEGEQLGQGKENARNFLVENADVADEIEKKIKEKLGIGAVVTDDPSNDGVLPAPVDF

Streptokinase A = molecular target: T5, Streptokinase A (Streptococcus pyogenes serotype M1, UniProt P10520); assay: S. pyogenes streptokinase expression inhibitors, potency, dose response, plasminogen activation absorbance, OD405 (AID 1914); type: functional, Streptococcus pyogenes M1 GAS;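 also: secreted streptokinase activity via plasminogen activation per viability signal from cell pellet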
T5 sequence (P10520 whole entry): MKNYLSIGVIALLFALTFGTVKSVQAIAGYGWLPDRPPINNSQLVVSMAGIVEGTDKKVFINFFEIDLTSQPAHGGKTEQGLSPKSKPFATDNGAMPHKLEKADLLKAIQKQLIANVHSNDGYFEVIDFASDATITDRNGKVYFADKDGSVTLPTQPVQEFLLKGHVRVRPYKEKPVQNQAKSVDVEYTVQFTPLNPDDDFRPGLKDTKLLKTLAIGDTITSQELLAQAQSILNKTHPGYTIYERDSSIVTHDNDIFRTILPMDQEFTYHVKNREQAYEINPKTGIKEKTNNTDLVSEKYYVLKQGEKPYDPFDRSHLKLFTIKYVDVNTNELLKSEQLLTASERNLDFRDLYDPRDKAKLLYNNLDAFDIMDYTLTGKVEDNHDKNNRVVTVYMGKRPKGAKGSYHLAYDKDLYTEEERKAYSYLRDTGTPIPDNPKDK

[11] = tested on: Streptococcus sp. 'group A'; assay: growth inhibition of control SK(-) GAS strain, dose response, counter-screen for streptokinase expression inhibitor project, luminescence, kanamycin, BacTiterGlo, confirmation (AID 1900); type: functional, organism-based
Streptococcus = assay: Group A Streptococcus viability loss, dose response, counter-screen for streptokinase expression inhibitor project, luminescence, BacTiterGlo (AID 1915); type: functional, organism-based;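 also: potency for reduction of bacterial viability or growth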

COc1ccc(OC)c(N(CC(=O)N2CCC(C)CC2)S(=O)(=O)c2ccccc2)c1
EC50 [1]: > 260 µM (inactive)

O=C(Nc1ccccc1)c1cccc2c(-c3cccnc3)coc12
IC50 (H9c2): > 79 µM (inactive)

Cc1c(-c2nnc(S)n2-c2ccc(C(F)(F)F)cc2)nnn1-c1ccccc1
EC50 [1]: > 260 µM (inactive)

CCCCc1ccc(/N=C/C2=C(O)OC3(CCCCC3)OC2=O)cc1
EC50 [2]: 5.81 µM (active)

Cc1ccc2nc(NCc3ccccc3)c(C=O)c(=O)n2c1
EC50 [1]: > 260 µM (inactive)

CCCc1nc2ccc(NC(=O)c3cccs3)cc2c(=O)n1Cc1ccccc1Cl
EC50 [1]: > 260 µM (inactive)

O=C(Cn1[nH]c(=O)c2ccccc2c1=O)NCC1COc2ccccc2O1 (centres undefined)
IC50 (H9c2): 48.7 µM (inactive)

O=C(N/N=C/c1ccc2c(c1)OCO2)c1cc(-c2ccccc2Cl)nc2ccccc12
EC50 [3]: 0.684 µM (active)
EC50 [4]: 94.7 µM (inconclusive)

CC(C)Cc1ccc(CN2CCCC(NC(=O)CCN3CCCO3)C2)cc1 (centres undefined)
EC50 [3]: > 38 µM (not active)
EC50 [4]: > 160 µM (inconclusive)

O=S(=O)(NC1CCCCC1N1CCN(c2ccccc2F)CC1)c1ccc(Cl)cc1 (centres undefined)
EC50 [2]: 6.24 µM (active)

CC(=O)OCC(=O)[C@@]1(O)CC[C@H]2[C@@H]3CCC4=CC(=O)CC[C@]4(C)[C@H]3C(=O)C[C@@]21C [CORTISONE ACETATE]
AC50 [5]: 28.3 µM (active)

O=C(CCN1C(=O)/C(=C/c2ccc(Cl)cc2)SC1=S)Nc1cccnc1
EC50 (BJ [6]): 14.9 µM (active)
EC50 (BJ [7]): > 150 µM (not active)
EC50 (BJ [8]): > 150 µM (not active)
EC50 [9]: 24.7 µM (active)

O=C(N/N=C/c1ccccn1)c1cc(-c2ccncc2)nc2ccccc12
IC50 (H9c2): > 79 µM (inactive)

CC(C)c1ccc(N(C(=O)CNC(=O)c2ccco2)C(C(=O)NC2CCCC2)c2ccncc2)cc1 (centres undefined)
EC50 [1]: > 260 µM (inactive)

COC1=CC(=O)C(O)=C(CCCCCCC/C=C/CCCCCCCC2=C(O)C(=O)C=C(OC)C2=O)C1=O
EC50 [3]: > 38 µM (not active)
IC50 (Genome polyprotein): 10.8 µM (active)
AC50 [10]: 2.6 µM (active)
EC50 [4]: > 160 µM (inactive)
EC50 (Protein RecA): 2.13 µM (active)

CCc1nc2ccccc2c(C(=O)OCc2nc(O)c3ccccc3n2)c1C
IC50 (H9c2): 5.84 µM (active)

CC(Sc1ccc(Cl)cc1)C(=O)NCc1ccc2c(c1)OCO2 (centres undefined)
EC50 [3]: 2.94 µM (active)
EC50 [4]: > 150 µM (inactive)

CC(C)c1ccc2c(c1)[C@H]1OCC[C@H]1[C@@H](c1cccs1)N2
EC50 [1]: > 260 µM (inactive)

c1ccc(-c2cnnc(SCc3cn4cccnc4n3)n2)cc1
EC50 (BJ [6]): > 150 µM (not active)
EC50 (BJ [7]): > 150 µM (inconclusive)
EC50 (BJ [8]): > 150 µM (inconclusive)
EC50 [9]: 24.9 µM (active)

COc1cc(C(=O)NCCc2ccc(F)cc2)ccc1OCC(=O)N1CCOCC1
EC50 [1]: > 260 µM (inactive)

COc1cccc(NC(=S)NC(=O)Cc2ccc(Cl)cc2)c1
EC50 [2]: 5.76 µM (active)

Cc1noc(C)c1COC(=O)c1ccccc1Oc1ccccc1
EC50 [1]: > 260 µM (inactive)

COc1cc(NC(=O)c2ccco2)c(C(=O)OCC(=O)c2c[nH]c3ccccc23)cc1OC
IC50 (H9c2): > 79 µM (inactive)

CCC1(CC)NC(=O)N(CC(=O)OCC(=O)Nc2ccccc2[N+](=O)[O-])C1=O
IC50 (H9c2): 11.9 µM (active)

COc1cc(NC(=O)c2c(OC)cccc2OC)ccc1NC(=O)c1cc2ccccc2o1
IC50 (H9c2): > 79 µM (inactive)

COc1ccc(-n2cccc2/C=C2\C(=N)N3N=C(C(C)C)SC3=NC2=O)cc1
EC50 [3]: > 38 µM (not active)
EC50 [4]: > 150 µM (inactive)

COc1cccc(OC)c1C(=O)Nc1cc(C)nn1-c1nc2ccccc2[nH]1
IC50 (H9c2): > 79 µM (inactive)
EC50 (Streptokinase A): > 150 µM (not active)
EC50 [11]: 15.5 µM (active)
EC50 (Streptococcus): > 150 µM (not active)
